According to US8378117B2 (priority 2005, dated 2013):
Where two headings read alike, the source gives them in different places.

Legend:
Male CD-1 mice [1] = assay: Oil of mustard induced colitis model; format: in vivo; details: Therapeutic Regimen, 5 mg/kg oral; 5 mg/kg
Description: In the distal colon, the oil of mustard colitis model is characterized by a discontinuous pattern of mucosal epithelial damage, submucosal edema, infiltration of inflammatory cells (including macrophages, neutrophils and lymphocytes) into the mucosa and submucosa, increased wet weight of the colon, shrinkage of the colon length, diarrhea and apparent inflammation (see, Kimball E. S., Palmer J. M., D'Andrea M. R., Homby P. J. and Wade P. R., Acute colitis induction by oil of mustard results in later development of an IBS-like accelerated upper GI transit in mice, Am. J Physiol. Gastrointest. Liver Physiol., 2005, 288: G 1266-1273).
Male CD-1 mice (Charles River Laboratories, Kingston, N.C.) (9-11 weeks old) and fresh oil of mustard (OM) (allyl isothiocyanate, 98% purity, Sigma-Aldrich St. Louis, Mo.) were used.
The mice (9 per treatment group) were briefly anesthetized with ketamine/xylasine (Sigma, St. Louis, Mo.) and a solution of 0.5% OM in 30% ethanol (50 μL) was administered intracolonically (to a depth of 4 cm) via syringe (equipped with a ball-tipped 22 G needle).
A test compound was orally administered one day prior to colitis induction for assessing a prophylactic regimen or one day post-induction for assessing a therapeutic regimen. A test compound was orally administered daily thereafter. Two days after OM administration, the last test compound dose was administered.
Three days after OM administration, the animals were sacrificed. The colons were resected, examined for signs of inflammation, weighed after removing fecal contents and the length from the aboral end of the cecum to the anus was measured. The fecal contents were examined for signs of diarrhea. The distal colon between the 1st and the 4th centimeter was removed and placed in 10% neutral buffered formalin for histological analysis.
The macroscopic observations of colon inflammation (a measure of colon damage), colon weight and length and stool consistency and appearance were assigned a score and used to evaluate colitis severity.
The four observation scores for each colon were combined, whereby a combined score of 0 represents a normal colon and a combined score of 15 represents a maximally affected colon. Statistical analyses were performed in Graphpad Prism 4.0 using ANOVA.
Histological analyses of tissues consisted of staining paraffin-embedded tissue sections with hematoxylin-eosin dye. The tissues were examined using light microscopy by an investigator who was blinded to the sample groups.
The microscopic observations of epithelial damage, cellular infiltration and damage or alteration of smooth muscle architecture (a measure of muscle damage) were assigned a score and used to evaluate colitis severity.
The scores for each colon were combined, whereby a combined score of 0 represents a normal colon and a combined score of 9 represents a maximally affected colon. Statistical analyses were performed in Graphpad Prism 4.0 using ANOVA.
The Macroscopic Score and Microscopic Score results for each treatment group in the prophylactic and therapeutic regimens were each combined into a mean score and expressed as % inhibition of colitis (% Inh). Test (#) represents the number of experiments at each dose level.

CB1 receptor = target: T1, CB1 receptor (Homo sapiens, UniProt P21554); assay: Binding assay for CB1 agonists or inverse agonists (SK-N-MC membranes, [3H]-CP-55,940); details: for inhibition at 0.2 µM: read-out: CB1 receptor binding percent inhibition, test concentration 0.2 μM (footnote 2)
T1 construct: expressed in transfected cells
T1 sequence (P21554 whole entry): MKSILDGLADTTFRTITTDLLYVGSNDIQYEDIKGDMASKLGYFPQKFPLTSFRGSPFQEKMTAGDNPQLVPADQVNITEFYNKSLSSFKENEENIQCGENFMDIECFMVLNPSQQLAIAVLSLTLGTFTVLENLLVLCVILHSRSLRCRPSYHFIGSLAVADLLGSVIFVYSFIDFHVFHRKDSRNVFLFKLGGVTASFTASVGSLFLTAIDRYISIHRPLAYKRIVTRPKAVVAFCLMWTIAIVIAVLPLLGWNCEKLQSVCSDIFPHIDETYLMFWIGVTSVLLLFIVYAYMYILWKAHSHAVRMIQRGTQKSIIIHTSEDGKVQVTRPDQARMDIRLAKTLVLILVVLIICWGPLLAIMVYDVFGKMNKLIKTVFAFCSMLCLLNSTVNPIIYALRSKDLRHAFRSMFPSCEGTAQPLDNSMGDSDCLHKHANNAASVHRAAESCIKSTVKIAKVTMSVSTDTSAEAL
How it was run: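 Membranes from SK-N-MC cells stably expressing human CB1 incubated with compound and [3H]-CP-55,940 ([…]) for 90 min at 30° C in Tris-HCl pH 7.5, MgCl2, EDTA, fatty-acid-free BSA. Non-specific binding defined with 10 uM WIN 55,212; filtration, scintillation count; IC50 by linear regression.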

Male CD-1 mice [2] = assay: Postoperative inflammatory ileus, microscopic myeloperoxidase histological examination; format: in vivo; details: Surgical Manipulation, 24 hr post-laparotomy, mean ± SE
Description: Male CD-1 mice were anesthetized by inhaled isoflurane and prepared for surgery. The abdomen was shaved of hair and treated with antiseptic solution. The animal was then covered with a surgical drape, leaving the abdomen exposed. A mid-line laparotomy was performed, and the entire small intestine was exteriorized onto the sterile drape. Using two moistened, sterile, cotton-tipped applicators, the small intestine was then gently compressed along its length from the ligament of Treitz to the ileo-cecal junction. The small intestine was then returned to the abdominal cavity and the incision closed by two layers of sutures.
Age-matched mice were randomly assigned to groups (6 animals per group) and injected intraperitoneally (i.p.) with “vehicle” (a mixture of 5% ethanol/5% Tween80/90% of 5% dextran in water w/v) containing various doses of a test compound 1 hr prior to laparotomy. The second group was injected intraperitoneally with vehicle. The third group was administered intragastrically (1 mg/kg) a mixture (1 mg/mL) of dexamethasone in 20% hydroxypropyl methyl dextran in water, once per day for two days prior to surgery and 5 hrs post-laparotomy. The fourth group received no intervention and served as naïve controls.
Microscopic histological examination was performed on harvested tissues 24 hr post-laparotomy. […] Hanker-Yates reagent (Polysciences Inc.) forms an insoluble, blue-black polymer in the presence of hydrogen peroxide and peroxidase enzyme activity. Segments of mid small bowel were collected from the centrifuge tubes described in the previous section. Whole mounts of the muscle layer were prepared by opening the tube of bowel along the mesenteric border and pinning the tissue flat in a Sylgard™ lined Petri dish with the mucosal surface facing upward. The tissue was stretched to 1.5 times its length and 2.5 times its width, and the mucosa removed by fine dissection. The remaining muscularis whole mounts were then fixed with 100% ethanol for 45 min, washed 3 times with PBS, and incubated for 20 min in PBS containing 0.1% hydrogen peroxide and 1 mg/ml Hanker-Yates reagent (Polysciences, Inc). The reagent is polymerized in the presence of hydrogen peroxide and peroxidase activity to form a blue-black deposit. Following a second wash with PBS, the whole mounts were mounted on glass slides, cover-slipped, and viewed on an optical microscope. Myeloperoxidase containing leukocytes were counted in 6 to 8 adjacent 200× optical fields, and the mean cell counts were calculated and recorded.
The presence of myeloperoxidase (MPO) positive immune cells in the intestinal muscularis is rare in normal animals.

[3] = Cannabinoid CB1 Receptor Binding IC50, calculated by linear regression from percent inhibition at various test concentrations

Compound | % Inh (Macro), % inhibition of colitis, macroscopic score (Male CD-1 mice [1]) | IC50 (CB1 receptor; [3]) | IC50 (CB1 receptor; read-out: Cannabinoid CB1 Receptor Binding IC50, calculated by linear regression from percent inhibition at various test concentrations) | inhibition at 0.2 µM (CB1 receptor) | MPO-Positive Cells (Per 200× Optical Field) (Male CD-1 mice [2]; dose 10 mg/kg) | MPO-Positive Cells (Per 200× Optical Field) (Male CD-1 mice [2]; dose 30 mg/kg) | MPO-Positive Cells (Per 200× Optical Field) (Male CD-1 mice [2]; dose 1 mg/kg) | MPO-Positive Cells (Per 200× Optical Field) (Male CD-1 mice [2]; dose 3 mg/kg)
O=C(N[C@H](CO)c1ccccc1)c1n[nH]c2c1CCCCC2Cc1cccc(Cl)c1 (single isomer, unassigned) [Cpd 230, (8R*)-8-(3-chloro-benzyl)-1,4,5,6,7,8-hexahydro-cycloheptapyrazole-3-carboxylic acid [(1S)-2-hydroxy-1-phenyl-ethyl]-amide] | 25.9 ± 24.7% | 300 nM |  |  |  |  |  | 
O=C(N[C@H](CO)c1ccccc1)c1n[nH]c2c1CCCCC2Cc1cccc(Cl)c1 (single isomer, unassigned) [Cpd 231, (8S*)-8-(3-chloro-benzyl)-1,4,5,6,7,8-hexahydro-cycloheptapyrazole-3-carboxylic acid [(1S)-2-hydroxy-1-phenyl-ethyl]-amide] | −19 ± 20.7% |  | 300 nM |  |  |  |  | 
C[C@H](NS(=O)(=O)/C=C/c1n[nH]c2c1CCCCC2Cc1cccc(F)c1)c1ccccc1 (single isomer, unassigned) [Cpd 232, (2E)-2-[(8R*)-8-(3-fluoro-benzyl)-1,4,5,6,7,8-hexahydro-cycloheptapyrazol-3-yl]-ethenesulfonic acid [(1S)-1-phenyl-ethyl]-amide] |  | 300 nM |  | 0% | 127.6 ± 25.7 | 60.2 ± 20.8 |  | 
C[C@H](NS(=O)(=O)/C=C/c1n[nH]c2c1CCCC/C2=C\c1ccc(Cl)cc1)c1ccccc1 [Cpd 237, (2E,8E)-2-[8-(4-chloro-benzylidene)-1,4,5,6,7,8-hexahydro-cycloheptapyrazol-3-yl]-ethenesulfonic acid [(1S)-1-phenyl-ethyl]-amide] |  | 300 nM |  | 0% | 77.7 ± 25.7 | 60.3 ± 20.9 | 57.8 ± 17.0 | 41.3 ± 9.4
